pIC50: −log10 of the molar value.
Biological target: PCSK9 (Homo sapiens, UniProt Q8NBP7)
Assay: SPR competition assay against the EGFa domain of LDLR
Assay type: binding

With `COc1ccc2nc(N)[nH]c2c1C#N` [Fig 12A, cyano-benzimidazole derivative] the pIC50 was 3.99.

From PMC6894869, “Fragment-based design of small molecule PCSK9 inhibitors using simulated annealing of chemical potential simulations” (PLoS ONE, 2019)
